Test results taken from patent publication US11945806B2, “Stabilization of amyloidogenic immunoglobulin light chains” (The Scripps Research Institute, priority 2019, dated 2024).

Each compound was assayed against T1, WIL-FL* (Homo sapiens, UniProt P01721, K101C, form not given) (assay: Protease-coupled fluorescence polarization (PCFP) assay with proteinase K). Conditions: 10 μM in pilot screen, n=1.

PK activity (%)	Compound
58.1 (10 μM in pilot screen) %	CC(=O)c1ccn(S(=O)(=O)c2ccccc2)c1 [Compound 17]
46.5 (10 μM in pilot screen) %	CC(=O)c1ccc(S(=O)(=O)c2ccccc2)cc1 [Compound 18]

Same assay, conditions: Primary screen, n=1, 6.75 μM compound

PK activity (%)	Compound
2.58 (Primary screen) %	O=c1ccc2ccccc2o1 [Compound 21]
2.27 (Primary screen) %	Cc1cc(=O)oc2cc(O)ccc12 [Compound 19]

Same assay, conditions: from dose response curves measured during the screening process

EC50 [µM]	Compound
18.5	CC(=O)c1ccn(S(=O)(=O)c2ccccc2)c1 [Compound 17]
4.92	CC(C=NNc1ccc(S(N)(=O)=O)cc1[N+](=O)[O-])c1ccccc1 (centres unmarked) [Compound 6]
18	CC(=O)c1ccc(S(=O)(=O)c2ccccc2)cc1 [Compound 18]

Same assay, conditions: secondary screen, mean ± sd, n=3; 6.75 μM compound; FP retention after 24 h at 22° C., normalized to high and low controls

PK activity (%)	Compound
60.8 ± 2.7	CC(C=NNc1ccc(S(N)(=O)=O)cc1[N+](=O)[O-])c1ccccc1 (centres unmarked) [Compound 6]

What follows are compounds tested against WIL-FL (Homo sapiens, UniProt P01721) (assay: Unlabeled LC Protease Sensitivity Assay (proteinase K)). Conditions: small molecule 10 μM, WIL-FL 5 μM, proteinase K 50 nM, 2 hours at 37° C.
Format: biochemical
Procedure, shortened: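 WIL-FL light chain (5 μM) in PBS pH 7.4 + 0.02% Pluronic F-127 digested with proteinase K (50 nM) for 2 h at 37 °C with 10 μM compound (1% DMSO). Intact WIL-FL quantified by size-exclusion UPLC (A280). Fold protection = (A_compound−A_vehicle)/(A_no_protease−A_vehicle) from peak areas.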

Protection (fold protection of LC from protease)	Compound
C (C ≥ 0.6)	CCN(CC)c1ccc2c(C)c(CCN3CC4(CCN(c5ncccn5)CC4)NC3=O)c(=O)oc2c1 [Compound 221, 3-(2-(7-(diethylamino)-4-methyl-2-oxo-2H-chromen-3-yl)ethyl)-8-(pyrimidin-2-yl)-1,3,8-triazaspiro[4.5]decan-2-one]
A (A < 0.3))	Cc1cc(=O)oc2cc(C(=O)O)ccc12 [Compound 225, 4-methyl-2-oxo-2H-chromene-7-carboxylic acid]
A (A < 0.3))	CCN(CC)c1ccc2c(C)c(CCOC(=O)NCCCc3ccccc3)c(=O)oc2c1 [Compound 81, 2-(7-(diethylamino)-4-methyl-2-oxo-2H-chromen-3-yl)ethyl (3-phenylpropyl)carbamate]
A (A < 0.3))	CCN(CC)c1ccc2c(C)c(CCN3C(=O)NC4(CCN(c5ccc(C(F)(F)F)cn5)C4)C3=O)c(=O)oc2c1 (centres unmarked) [Compound 196, 3-(2-(7-(diethylamino)-4-methyl-2-oxo-2H-chromen-3-yl)ethyl)-7-(5-(trifluoromethyl)pyridin-2-yl)-1,3,7-triazaspiro[4.4]nonane-2,4-dione]
C (C ≥ 0.6)	CCN(CC)c1ccc2c(C)c(CCN3C(=O)NC4(CCN(C(=O)c5ncc[nH]5)C4)C3=O)c(=O)oc2c1 (centres unmarked) [Compound 181, 3-(2-(7-(diethylamino)-4-methyl-2-oxo-2H-chromen-3-yl)ethyl)-7-(1H-imidazole-2-carbonyl)-1,3,7-triazaspiro[4.4]nonane-2,4-dione]
A (A < 0.3))	CCN(CC)c1ccc2c(C)c(CCOC(=O)N3CCC(C)(O)C3)c(=O)oc2c1 (centres unmarked) [Compound 111, 2-(7-(diethylamino)-4-methyl-2-oxo-2H-chromen-3-yl)ethyl 3-hydroxy-3-methylpyrrolidine-1-carboxylate]
C (C ≥ 0.6)	CCN(CC)c1ccc2c(C)c(CCOC(=O)NCc3cccc(CN(C)C)c3)c(=O)oc2c1 [Compound 135, 2-(7-(diethylamino)-4-methyl-2-oxo-2H-chromen-3-yl)ethyl (3-((dimethylamino)methyl)benzyl)carbamate]
A (A < 0.3))	CCN(CC)c1ccc2c(C)c(CCNC(=O)NCc3cc(F)cc(C(=O)O)c3)c(=O)oc2c1 [Compound 297, 3-((3-(2-(7-(diethylamino)-4-methyl-2-oxo-2H-chromen-3-yl)ethyl)ureido)methyl)-5-fluorobenzoic acid]
C (C ≥ 0.6)	CCN(CC)c1ccc2c(C)c(CCOC(=O)NCc3cccc(NC(C)=O)c3)c(=O)oc2c1 [Compound 117, 2-(7-(diethylamino)-4-methyl-2-oxo-2H-chromen-3-yl)ethyl (3-acetamidobenzyl)carbamate]
A (A < 0.3))	CCN(CC)c1ccc2c(C)c(CC(=O)N(C)C)c(=O)oc2c1 [Compound 61, 2-(7-(diethylamino)-4-methyl-2-oxo-2H-chromen-3-yl)-N,N-dimethylacetamide]
A (A < 0.3))	CCN(CC)c1ccc2c(C)c(CCOC(=O)NCc3ccc(Cl)nc3)c(=O)oc2c1 [Compound 97, 2-(7-(diethylamino)-4-methyl-2-oxo-2H-chromen-3-yl)ethyl ((6-chloropyridin-3-yl)methyl)carbamate]
A (A < 0.3))	CCN(CC)c1ccc2c(C)c(CCNC(=O)NCc3ccncn3)c(=O)oc2c1 [Compound 294, 1-(2-(7-(diethylamino)-4-methyl-2-oxo-2H-chromen-3-yl)ethyl)-3-(pyrimidin-4-ylmethyl)urea]
A (A < 0.3))	CCN(CC)c1ccc2c(C)c(CCNC(=O)NCc3ccc4[nH]ccc4c3)c(=O)oc2c1 [Compound 279, 1-((1H-indol-5-yl)methyl)-3-(2-(7-(diethylamino)-4-methyl-2-oxo-2H-chromen-3-yl)ethyl)urea]
A (A < 0.3))	CCN(CC)c1ccc2c(C)cc(=O)n(C)c2c1 [Compound 52, 7-(diethylamino)-1,4-dimethylquinolin-2(1H)-one]
A (A < 0.3))	Cc1cc(=O)oc2cc(NCc3ccoc3)ccc12 [Compound 29, 7-((furan-3-ylmethyl)amino)-4-methyl-2H-chromen-2-one]
A (A < 0.3))	C#CCN(CCCF)c1ccc2c(C)cc(=O)oc2c1 [Compound 264, 7-((3-fluoropropyl)(prop-2-yn-1-yl)amino)-4-methyl-2H-chromen-2-one]
B (3 ≤ B < 0.6)	Cc1c(CN2CCOCC2)c(=O)oc2cc(OCC(C)c3ccccc3)ccc12 (centres unmarked) [Compound 183, 4-methyl-3-(morpholinomethyl)-7-(2-phenylpropoxy)-2H-chromen-2-one]
A (A < 0.3))	C#CCN(CC)c1ccc2c(C)cc(=O)oc2c1 [Compound 271, 7-(ethyl(prop-2-yn-1-yl)amino)-4-methyl-2H-chromen-2-one]
A (A < 0.3))	C#CCNc1ccc2c(C)cc(=O)oc2c1 [Compound 249, 4-methyl-7-(prop-2-yn-1-ylamino)-2H-chromen-2-one]
A (A < 0.3))	CCN(CC)c1ccc2c(C)c(CCC(=O)NCCCN(C)C)c(=O)oc2c1 [Compound 68]
A (A < 0.3))	Cc1cc(=O)oc2cc(N3CCCC3)ccc12 [Compound 36, 4-methyl-7-(pyrrolidin-1-yl)-2H-chromen-2-one]
C (C ≥ 0.6)	CCN(CC)c1ccc2c(C)c(CCOC(=O)NCc3cccc(-c4c[nH]cn4)c3)c(=O)oc2c1 [Compound 141, 2-(7-(diethylamino)-4-methyl-2-oxo-2H-chromen-3-yl)ethyl (3-(1H-imidazol-4-yl)benzyl)carbamate]
A (A < 0.3))	CCN(CC)c1ccc2c(C)c(CCOC(=O)N3CCN(c4cc(C)no4)CC3)c(=O)oc2c1 [Compound 113, 2-(7-(diethylamino)-4-methyl-2-oxo-2H-chromen-3-yl)ethyl 4-(3-methylisoxazol-5-yl)piperazine-1-carboxylate]
A (A < 0.3))	Cc1cc(=O)oc2cc(OC(C)c3ccncc3)ccc12 (centres unmarked) [Compound 172, 4-methyl-7-(1-(pyridin-4-yl)ethoxy)-2H-chromen-2-one]
B (3 ≤ B < 0.6)	CCN(CC)c1ccc2c(C)c(CCOC(=O)NCC3CCNCC3)c(=O)oc2c1 [Compound 147, 2-(7-(diethylamino)-4-methyl-2-oxo-2H-chromen-3-yl)ethyl (piperidin-4-ylmethyl)carbamate]
A (A < 0.3))	CCN(CC)c1ccc2c(C)c(CCOC(=O)NCc3cncc4ccccc34)c(=O)oc2c1 [Compound 140, 2-(7-(diethylamino)-4-methyl-2-oxo-2H-chromen-3-yl)ethyl (isoquinolin-4-ylmethyl)carbamate]
A (A < 0.3))	Cc1cc(=O)oc2cc(C(=O)Nc3ccc4ccccc4n3)ccc12 [Compound 233, 4-methyl-2-oxo-N-(quinolin-2-yl)-2H-chromene-7-carboxamide]
B (3 ≤ B < 0.6)	CCN(CC)c1ccc2c(C)c(CCNC(=O)NCc3cccc(CCC(=O)O)c3)c(=O)oc2c1 [Compound 307, 3-(3-((3-(2-(7-(diethylamino)-4-methyl-2-oxo-2H-chromen-3-yl)ethyl)ureido)methyl)phenyl)propanoic acid]
C (C ≥ 0.6)	CCN(CC)c1ccc2c(C)c(CCOC(=O)NCc3cccc(-c4ccncc4)c3)c(=O)oc2c1 [Compound 162, 2-(7-(diethylamino)-4-methyl-2-oxo-2H-chromen-3-yl)ethyl (3-(pyridin-4-yl)benzyl)carbamate]
B (3 ≤ B < 0.6)	CCN(CC)c1ccc2c(C)c(CCN3C(=O)NC4(CCN(C(=O)c5cncnc5)C4)C3=O)c(=O)oc2c1 (centres unmarked) [Compound 209, 3-(2-(7-(diethylamino)-4-methyl-2-oxo-2H-chromen-3-yl)ethyl)-7-(pyrimidine-5-carbonyl)-1,3,7-triazaspiro[4.4]nonane-2,4-dione]

Compound	Protection (fold protection of LC from protease)
CCNc1ccc2c(C)cc(=O)oc2c1 [Compound 270, 7-(ethylamino)-4-methyl-2H-chromen-2-one]	A (A < 0.3))
CCC(C)Oc1ccc2c(C)cc(=O)oc2c1 (centres unmarked) [Compound 32, 7-(sec-butoxy)-4-methyl-2H-chromen-2-one]	A (A < 0.3))

The compounds below were run against T1, WIL-FL* (assay: PCFP assay with thermolysin). Conditions: mean ± sd, n=3; 6.75 μM compound.
Method: Thirdly, to remove molecules that inhibit proteinase K, the assay was repeated in triplicate using 100 nM thermolysin (Thermo). […] The additional metal ions were added to bind to ion-chelating small molecules and prevent them from inhibiting the metalloproteinase.
To identify and exclude molecules that interfered with FP measurements, the assay was repeated, but candidate stabilizers were not added until after 24 h of PK treatment (FIG. 1f). […] Thermolysin is a broad-spectrum metalloprotease that is likely not inhibited by compounds that inhibit PK, a serine protease.

Thermolysin activity (%)	Compound
45.1 ± 6.6	CC(C=NNc1ccc(S(N)(=O)=O)cc1[N+](=O)[O-])c1ccccc1 (centres unmarked) [Compound 6]
